Assay results: ChEMBL document CHEMBL1201862, “PubChem BioAssay data set” (2004)
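Protocol summary: plate cells (96-well), add compound at 5 concentrations, incubate 48 h, interpolate endpoints linearly. Here, GI50 denotes the concentration required for 50% inhibition of growth.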 Active and inactive are the calls of the source. Rule as the data show it: active = GI50 up to about 1.1 µM and inactive = higher.

Experiments:
Assay in all cases: NCI-60 cell line screen, 48 h
786-0 = system: 786-0
A498 = system: A498
A549 = system: A549
ACHN = system: ACHN
BT-549 = system: BT-549
CAKI-1 = system: CAKI-1
CCRF-CEM = system: CCRF-CEM
COLO 205 = system: COLO 205
DU-145 = system: DU-145
EKVX = system: EKVX
HCC 2998 = system: HCC 2998
HCT-116 = system: HCT-116
HCT-15 = system: HCT-15
HL-60 = system: HL-60
HOP-62 = system: HOP-62
HOP-92 = system: HOP-92
HT-29 = system: HT-29
Hs-578T = system: Hs-578T
IGROV-1 = system: IGROV-1
KM12 = system: KM12
LOX IMVI = system: LOX IMVI
M14 = system: M14
MCF7 = system: MCF7
MDA-MB-231 = system: MDA-MB-231
MDA-MB-435 = system: MDA-MB-435
MDA-N = system: MDA-N
MOLT-4 = system: MOLT-4
Malme-3M = system: Malme-3M
NCI-H226 = system: NCI-H226
NCI-H23 = system: NCI-H23
NCI-H460 = system: NCI-H460
NCI-H522 = system: NCI-H522
NCI/ADR-RES = system: NCI/ADR-RES
OVCAR-3 = system: OVCAR-3
OVCAR-4 = system: OVCAR-4
OVCAR-5 = system: OVCAR-5
OVCAR-8 = system: OVCAR-8
PC-3 = system: PC-3
RPMI-8226 = system: RPMI-8226
RXF 393 = system: RXF 393
SF-268 = system: SF-268
SF-295 = system: SF-295
SF-539 = system: SF-539
SK-MEL-28 = system: SK-MEL-28
SK-MEL-2 = system: SK-MEL-2
SK-MEL-5 = system: SK-MEL-5
SK-OV-3 = system: SK-OV-3
SN12C = system: SN12C
SNB-19 = system: SNB-19
SR = system: SR
SW-620 = system: SW-620
T47D = system: T47D
TK-10 = system: TK-10
U-251 = system: U-251
UACC-257 = system: UACC-257
UACC-62 = system: UACC-62
UO-31 = system: UO-31
K562 = system: K562
SNB-75 = system: SNB-75

`CCCCCCCCCCCCCCCCOCC(O)CO` (configuration not stated) was tested, and the GI50 (786-0) was 18.4 µM (inactive), the GI50 (A498) was 19.5 µM (inactive) and the GI50 (A549) was 20.1 µM (inactive). The GI50 (ACHN) was 18.8 µM (inactive), the GI50 (BT-549) was 22.2 µM (inactive) and the GI50 (CAKI-1) was 17.6 µM (inactive). The GI50 (CCRF-CEM) was 11.1 µM (inactive), the GI50 (COLO 205) was 22.1 µM (inactive) and the GI50 (DU-145) was 18.9 µM (inactive). The GI50 (EKVX) was 18.2 µM (inactive), the GI50 (HCC 2998) was 17.3 µM (inactive) and the GI50 (HCT-116) was 19.4 µM (inactive). For the same compound, the GI50 (HCT-15) was 18.7 µM, the GI50 (HL-60) was 7.18 µM (inactive) and the GI50 (HOP-62) was 19.6 µM (inactive). For the same compound, the GI50 (HOP-92) was 21 µM (inactive), the GI50 (HT-29) was 17.3 µM (inactive) and the GI50 (Hs-578T) was 18.4 µM (inactive). For the same compound, the GI50 (IGROV-1) was 16.3 µM (inactive), the GI50 (KM12) was 17.4 µM (inactive) and the GI50 (LOX IMVI) was 17.8 µM (inactive). The GI50 (M14) was 22.8 µM (inactive), the GI50 (MCF7) was 22.2 µM (inactive) and the GI50 (MDA-MB-231) was 18.5 µM (inactive). The GI50 (MDA-MB-435) was 17.4 µM (inactive), the GI50 (MDA-N) was 25.7 µM (inactive) and the GI50 (MOLT-4) was 13.3 µM (inactive). For the same compound, the GI50 (Malme-3M) was 19.2 µM (inactive), the GI50 (NCI-H226) was 18.7 µM (inactive) and the GI50 (NCI-H23) was 17.9 µM (inactive). For the same compound, the GI50 (NCI-H460) was 19.9 µM (inactive), the GI50 (NCI-H522) was 16.8 µM (inactive) and the GI50 (NCI/ADR-RES) was 16.7 µM (inactive). The GI50 (OVCAR-3) was 20.7 µM (inactive), the GI50 (OVCAR-4) was 21 µM (inactive) and the GI50 (OVCAR-5) was 19.8 µM (inactive). For the same compound, the GI50 (OVCAR-8) was 17.9 µM (inactive), the GI50 (PC-3) was 16.5 µM (inactive) and the GI50 (RPMI-8226) was 14.8 µM (inactive). For the same compound, the GI50 (RXF 393) was 16.2 µM (inactive), the GI50 (SF-268) was 17.1 µM (inactive) and the GI50 (SF-295) was 16.4 µM (inactive). The GI50 (SF-539) was 16.3 µM (inactive), the GI50 (SK-MEL-28) was 18.6 µM (inactive) and the GI50 (SK-MEL-2) was 20.6 µM (inactive). The GI50 (SK-MEL-5) was 27.5 µM (inactive), the GI50 (SK-OV-3) was 16.6 µM (inactive) and the GI50 (SN12C) was 19.2 µM (inactive). The GI50 (SNB-19) was 24 µM (inactive), the GI50 (SR) was 10.3 µM (inactive) and the GI50 (SW-620) was 20.3 µM (inactive). The GI50 (T47D) was 23.4 µM (inactive), the GI50 (TK-10) was 15.2 µM (inactive) and the GI50 (U-251) was 19 µM (inactive). For the same compound, the GI50 (UACC-257) was 19.1 µM (inactive), the GI50 (UACC-62) was 17 µM (inactive) and the GI50 (UO-31) was 17.1 µM (inactive).

`CCOC(=O)c1c(O)cn2c1[nH]c1cccc3cccc2c31` was tested, and the GI50 (786-0) was 52.2 µM (inactive), the GI50 (A498) was > 100 µM (inactive) and the GI50 (A549) was > 100 µM (inactive). For the same compound, the GI50 (ACHN) was 52.4 µM (inactive), the GI50 (BT-549) was > 100 µM (inactive) and the GI50 (CAKI-1) was > 100 µM (inactive). For the same compound, the GI50 (CCRF-CEM) was 32.6 µM (inactive), the GI50 (COLO 205) was 71.6 µM (inactive) and the GI50 (DU-145) was 71.6 µM (inactive). For the same compound, the GI50 (EKVX) was > 100 µM (inactive), the GI50 (HCC 2998) was 64.7 µM (inactive) and the GI50 (HCT-116) was > 100 µM (inactive). For the same compound, the GI50 (HCT-15) was 54.6 µM, the GI50 (HL-60) was 57.3 µM (inactive) and the GI50 (HOP-62) was 35.6 µM (inactive). The GI50 (HOP-92) was 51.4 µM (inactive), the GI50 (HT-29) was > 100 µM (inactive) and the GI50 (Hs-578T) was > 100 µM (inactive). The GI50 (IGROV-1) was 62.2 µM (inactive), the GI50 (K562) was > 100 µM (inactive) and the GI50 (KM12) was > 100 µM (inactive). The GI50 (LOX IMVI) was 46.9 µM (inactive), the GI50 (M14) was > 100 µM (inactive) and the GI50 (MCF7) was 49.2 µM (inactive). For the same compound, the GI50 (MDA-MB-231) was > 100 µM (inactive), the GI50 (MDA-MB-435) was > 100 µM (inactive) and the GI50 (MDA-N) was > 100 µM (inactive). For the same compound, the GI50 (MOLT-4) was 44.2 µM (inactive), the GI50 (Malme-3M) was > 100 µM (inactive) and the GI50 (NCI-H226) was > 100 µM (inactive). The GI50 (NCI-H23) was 62.4 µM (inactive), the GI50 (NCI-H460) was 92.7 µM (inactive) and the GI50 (NCI-H522) was 46.5 µM (inactive). The GI50 (NCI/ADR-RES) was > 100 µM (inactive), the GI50 (OVCAR-4) was > 100 µM (inactive) and the GI50 (OVCAR-5) was > 100 µM (inactive). For the same compound, the GI50 (OVCAR-8) was 44.1 µM (inactive), the GI50 (PC-3) was > 100 µM (inactive) and the GI50 (RPMI-8226) was > 100 µM (inactive). The GI50 (RXF 393) was 41.5 µM (inactive), the GI50 (SF-268) was 63.7 µM (inactive) and the GI50 (SF-295) was 87.5 µM (inactive). The GI50 (SK-MEL-28) was > 100 µM (inactive), the GI50 (SK-MEL-2) was > 100 µM (inactive) and the GI50 (SK-MEL-5) was > 100 µM (inactive). For the same compound, the GI50 (SK-OV-3) was > 100 µM (inactive), the GI50 (SN12C) was > 100 µM (inactive) and the GI50 (SNB-19) was 97.7 µM (inactive). For the same compound, the GI50 (SNB-75) was 37.4 µM (inactive), the GI50 (SR) was 50.5 µM (inactive) and the GI50 (SW-620) was > 100 µM (inactive). For the same compound, the GI50 (T47D) was 50.8 µM (inactive), the GI50 (TK-10) was > 100 µM (inactive) and the GI50 (U-251) was 63.4 µM (inactive). For the same compound, the GI50 (UACC-257) was > 100 µM (inactive), the GI50 (UACC-62) was > 100 µM (inactive) and the GI50 (UO-31) was 69.2 µM (inactive).

`Cc1c(Cl)nc(Cl)nc1Cl` was tested, and the GI50 (786-0) was 1.48 µM (inactive), the GI50 (A498) was 3.8 µM (inactive) and the GI50 (A549) was 2.69 µM (inactive). The GI50 (ACHN) was 0.421 µM (active), the GI50 (BT-549) was 3.65 µM (inactive) and the GI50 (CAKI-1) was 0.273 µM (active). For the same compound, the GI50 (CCRF-CEM) was 0.238 µM (active), the GI50 (COLO 205) was 0.307 µM (active) and the GI50 (DU-145) was 3.63 µM (inactive). The GI50 (EKVX) was 1.9 µM (inactive), the GI50 (HCC 2998) was 1.2 µM (inactive) and the GI50 (HCT-116) was 1.14 µM (inactive). The GI50 (HCT-15) was 0.287 µM, the GI50 (HL-60) was 1.94 µM (inactive) and the GI50 (HOP-62) was 4.97 µM (inactive). For the same compound, the GI50 (HOP-92) was 2.12 µM (inactive), the GI50 (HT-29) was 0.818 µM (active) and the GI50 (Hs-578T) was 3.12 µM (inactive). For the same compound, the GI50 (IGROV-1) was 3.01 µM (inactive), the GI50 (K562) was 0.6 µM (active) and the GI50 (KM12) was 2.44 µM (inactive). For the same compound, the GI50 (LOX IMVI) was 0.373 µM (active), the GI50 (M14) was 0.857 µM (active) and the GI50 (MCF7) was 0.984 µM (active). For the same compound, the GI50 (MDA-MB-231) was 1.43 µM (inactive), the GI50 (MDA-MB-435) was 2.19 µM (inactive) and the GI50 (MDA-N) was 2.18 µM (inactive). The GI50 (MOLT-4) was 0.321 µM (active), the GI50 (Malme-3M) was 1.05 µM (active) and the GI50 (NCI-H226) was 3.21 µM (inactive). The GI50 (NCI-H23) was 2.18 µM (inactive), the GI50 (NCI-H460) was 5.71 µM (inactive) and the GI50 (NCI-H522) was 0.044 µM (active). The GI50 (NCI/ADR-RES) was 1.36 µM (inactive), the GI50 (OVCAR-3) was 1.85 µM (inactive) and the GI50 (OVCAR-4) was 1.46 µM (inactive). For the same compound, the GI50 (OVCAR-5) was 1.88 µM (inactive), the GI50 (OVCAR-8) was 2.48 µM (inactive) and the GI50 (PC-3) was 2 µM (inactive). The GI50 (RPMI-8226) was 2.38 µM (inactive), the GI50 (RXF 393) was 1.87 µM (inactive) and the GI50 (SF-268) was 1.73 µM (inactive). For the same compound, the GI50 (SF-295) was 5.7 µM (inactive), the GI50 (SF-539) was 2.43 µM (inactive) and the GI50 (SK-MEL-28) was 3.18 µM (inactive). The GI50 (SK-MEL-5) was 2.16 µM (inactive), the GI50 (SK-OV-3) was 3.91 µM (inactive) and the GI50 (SN12C) was 2.69 µM (inactive). For the same compound, the GI50 (SNB-19) was 3.81 µM (inactive), the GI50 (SNB-75) was 5.68 µM (inactive) and the GI50 (SR) was 0.434 µM (active). The GI50 (SW-620) was 1.27 µM (inactive), the GI50 (T47D) was 1.58 µM (inactive) and the GI50 (TK-10) was 3.51 µM (inactive). For the same compound, the GI50 (U-251) was 1.77 µM (inactive), the GI50 (UACC-257) was 2.3 µM (inactive) and the GI50 (UACC-62) was 4 µM (inactive). For the same compound, the GI50 (UO-31) was 0.409 µM (active).
